Data as given in the supplement of paper PMC10307832.

Tests used:
Test in all cases: relative viability (nuclei count vs DMSO), 5 days (fraction); higher = more cells survive
Axitinib + Bortezomib = compound: CNC(=O)c1ccccc1Sc1ccc2c(/C=C/c3ccccn3)n[nH]c2c1 [Axitinib] + CC(C)C[C@H](NC(=O)[C@H](Cc1ccccc1)NC(=O)c1cnccn1)B(O)O [Bortezomib] (partner 0.002 µM)
In short: (§1)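 A single step with final 0.05% Triton X-100, 1% formaldehyde and 1 ug/ml Hoechst fixed the cells and stained nuclei 5 days after treatment. Lung cancer cell lines in 1536-well plates had been treated by pin tool the day after seeding with one drug alone or a fixed anchor-drug dose plus five library-drug doses (not always all listed) in √10 steps, and nuclei were counted on 4× images. Relative viability is the ratio of nuclei in treated wells to nuclei in vehicle wells, taken as the median of duplicate plates.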

Bemcentinib + Foretinib = compound: Nc1nc(Nc2ccc3c(c2)CC[C@@H](N2CCCC2)CC3)nn1-c1cc2c(nn1)-c1ccccc1CCC2 [Bemcentinib] + COc1cc2c(Oc3ccc(NC(=O)C4(C(=O)Nc5ccc(F)cc5)CC4)cc3F)ccnc2cc1OCCCN1CCOCC1 [Foretinib] (partner 0.25 µM)
In short: as §1

Bemcentinib + Lapatinib = compound: Nc1nc(Nc2ccc3c(c2)CC[C@@H](N2CCCC2)CC3)nn1-c1cc2c(nn1)-c1ccccc1CCC2 [Bemcentinib] + CS(=O)(=O)CCNCc1ccc(-c2ccc3ncnc(Nc4ccc(OCc5cccc(F)c5)c(Cl)c4)c3c2)o1 [Lapatinib] (partner 2 µM)
In short: as §1

Bemcentinib + Crizotinib = compound: Nc1nc(Nc2ccc3c(c2)CC[C@@H](N2CCCC2)CC3)nn1-c1cc2c(nn1)-c1ccccc1CCC2 [Bemcentinib] + C[C@@H](Oc1cc(-c2cnn(C3CCNCC3)c2)cnc1N)c1c(Cl)ccc(F)c1Cl [Crizotinib] (partner 1 µM)
In short: as §1

Cell Line	relative viability (Axitinib + Bortezomib; first compound 0.005 µM)	relative viability (Axitinib + Bortezomib; first compound 0.01581 µM)	relative viability (Axitinib + Bortezomib; first compound 0.05 µM)	relative viability (Axitinib + Bortezomib; first compound 0.1581 µM)	relative viability (Axitinib + Bortezomib; first compound 0.5 µM)	relative viability (Bemcentinib + Foretinib; first compound 0.04 µM)	relative viability (Bemcentinib + Foretinib; first compound 0.1265 µM)	relative viability (Bemcentinib + Foretinib; first compound 0.4 µM)	relative viability (Bemcentinib + Foretinib; first compound 1.265 µM)	relative viability (Bemcentinib + Foretinib; first compound 4 µM)	relative viability (Bemcentinib + Lapatinib; first compound 0.04 µM)	relative viability (Bemcentinib + Lapatinib; first compound 0.1265 µM)	relative viability (Bemcentinib + Lapatinib; first compound 0.4 µM)	relative viability (Bemcentinib + Lapatinib; first compound 1.265 µM)	relative viability (Bemcentinib + Lapatinib; first compound 4 µM)	relative viability (Bemcentinib + Crizotinib; first compound 0.04 µM)	relative viability (Bemcentinib + Crizotinib; first compound 0.1265 µM)	relative viability (Bemcentinib + Crizotinib; first compound 0.4 µM)	relative viability (Bemcentinib + Crizotinib; first compound 1.265 µM)	relative viability (Bemcentinib + Crizotinib; first compound 4 µM)
Calu-6	1.11	0.944	0.956	1.1	0.996	0.93	0.938	0.947	0.917	0.905	1.02	1.25	1.34	1.13	1.11	0.76	0.958	1.09	0.858	0.676
NCI-H2023	0.968	1	1.03	0.834	1.02	0.824	1.09	0.936	0.731	0.686	0.739	0.866	0.868	0.808	0.874	0.648	0.653	0.723	0.6	0.599
NCI-H2347	1.26	0.752	1.36	0.798	0.692	0.831	0.847	0.891	0.834	0.763	1.01	0.928	0.977	0.955	0.9	0.783	1.01	0.612	0.669	0.627
ABC-1	0.34	0.307	0.315	0.254	0.289	1.05	1.18	1	0.899	0.897	1.33	1.36	1.33	0.998	1.26	1.06	1.26	0.934	0.95	1.02
UMC-11	0.977	0.722	0.65	0.637	0.589	0.939	1.18	1.15	1.12	1.08	0.88	1.16	1.06	0.868	0.975	0.568	0.57	0.589	0.692	0.662
PC-3 [JPC-3]	0.98	–	0.807	0.833	0.964	1.07	1.05	1.1	0.992	1.03	0.455	0.495	0.421	0.425	0.471	0.959	1.03	1	0.974	1.09
LU99A	1.1	1.09	1.13	1.12	1.12	0.751	0.763	0.778	0.816	0.837	0.961	1.26	1.15	0.961	0.893	0.549	0.629	0.542	0.574	0.532
CAL-12T	1.03	0.978	0.955	1.11	0.965	1.17	1.1	0.97	1.11	1.07	0.556	0.598	0.599	0.597	0.652	0.394	0.767	0.679	0.62	0.525
NCI-H2087	0.944	0.772	0.868	0.615	1.13	1.08	1.32	1.14	1.21	0.937	0.992	0.951	1.08	1.01	1.01	0.827	0.982	0.942	0.999	1.05
LCLC-97TM1	0.732	0.419	0.585	0.515	0.736	0.941	0.97	0.929	0.964	1.02	0.777	1.11	–	1.12	0.941	0.267	0.475	–	0.376	0.259
BEN	0.804	0.781	0.554	0.75	0.543	0.562	0.731	0.711	0.612	0.635	0.488	0.844	0.807	0.531	0.734	0.936	1.16	0.935	0.845	0.775
NCI-H727	1.1	0.854	1	0.868	0.795	0.881	1.09	0.935	0.88	1.03	0.713	0.875	0.877	0.864	1.01	0.666	1.08	0.743	0.801	0.817
NCI-H1915	0.921	0.944	1.05	0.986	0.976	1.11	1.08	1.15	1.07	1.17	0.958	1.07	0.979	1.09	1.05	0.957	1.03	0.911	0.96	0.989
HARA	1.09	1.07	1.1	1.13	1.14	0.856	1.11	1.01	1.04	0.958	0.668	0.928	0.788	0.865	0.469	1.02	1.28	1.22	1.08	1.03
NCI-H1650	0.209	0.208	0.191	0.195	0.22	1.12	1.1	0.969	0.885	1.32	0.7	0.817	0.74	0.921	0.79	0.887	0.998	1.05	0.973	0.814
EMC-BAC-2	1.13	1.04	1.09	1.13	1.07	0.972	1.02	1.04	1.03	1.06	0.917	0.959	0.957	0.878	0.898	0.788	0.801	0.776	0.836	0.831

Cell Line	relative viability (Axitinib + Bortezomib; first compound 0.005 µM)	relative viability (Axitinib + Bortezomib; first compound 0.01581 µM)	relative viability (Axitinib + Bortezomib; first compound 0.05 µM)	relative viability (Axitinib + Bortezomib; first compound 0.1581 µM)	relative viability (Axitinib + Bortezomib; first compound 0.5 µM)	relative viability (Bemcentinib + Foretinib; first compound 0.04 µM)	relative viability (Bemcentinib + Foretinib; first compound 0.1265 µM)	relative viability (Bemcentinib + Foretinib; first compound 0.4 µM)	relative viability (Bemcentinib + Foretinib; first compound 1.265 µM)	relative viability (Bemcentinib + Foretinib; first compound 4 µM)	relative viability (Bemcentinib + Lapatinib; first compound 0.04 µM)	relative viability (Bemcentinib + Lapatinib; first compound 0.1265 µM)	relative viability (Bemcentinib + Lapatinib; first compound 0.4 µM)	relative viability (Bemcentinib + Lapatinib; first compound 1.265 µM)	relative viability (Bemcentinib + Lapatinib; first compound 4 µM)	relative viability (Bemcentinib + Crizotinib; first compound 0.04 µM)	relative viability (Bemcentinib + Crizotinib; first compound 0.1265 µM)	relative viability (Bemcentinib + Crizotinib; first compound 0.4 µM)	relative viability (Bemcentinib + Crizotinib; first compound 1.265 µM)	relative viability (Bemcentinib + Crizotinib; first compound 4 µM)
NCI-H1703	0.353	0.228	0.161	0.212	0.207	–	0.336	0.377	0.312	0.334	–	1.18	1.24	1.17	1.13	–	0.687	0.723	0.717	0.627
LOU-NH91	0.517	0.537	0.43	0.475	0.57	0.891	0.895	0.933	1.02	0.988	0.714	0.79	0.789	0.742	0.756	0.717	0.726	0.732	0.753	0.756
NCI-H3122	0.904	1.03	1.04	1.05	1.07	–	1.06	0.972	0.943	0.948	0.818	1.03	1.03	1.02	1.03	0.257	0.157	0.262	0.31	0.293
NCI-H1975	0.404	0.357	0.397	0.394	0.463	0.982	0.995	0.995	0.865	1.04	0.962	1.02	0.894	0.79	0.853	1.07	1.23	1.07	1.1	1.17
NCI-H661	0.93	0.83	0.648	0.785	0.842	0.969	1.04	1.01	0.981	0.986	0.484	0.431	0.491	0.567	0.469	0.878	0.947	0.852	0.998	1.02
NCI-H1651	0.926	0.942	0.934	0.889	0.857	0.824	0.928	0.812	0.856	1.14	0.836	0.979	1.1	0.815	0.822	0.886	0.882	0.873	0.905	0.878
NCI-H647	1.04	1.1	0.94	1.01	1.08	1.33	1.22	1.24	1.49	1.2	1.2	1.25	1.1	0.978	1.22	1.13	1.39	1.1	1.12	1.21
HCC-78	0.643	0.491	0.305	0.499	0.566	0.578	0.486	0.555	–	0.562	0.113	0.443	0.693	0.281	0.0037	0.322	0.344	0.334	0.334	0.328
NCI-H2126	1.15	1.05	1.07	1.04	1.11	1.25	1.43	1.37	1.13	1.23	0.791	0.768	0.8	0.814	0.842	1.05	1.1	1.01	1.03	1.02
SK-LU-1	1.29	1.2	1.43	1.08	1.08	0.854	0.988	0.89	0.896	0.826	0.806	0.888	0.865	0.964	0.904	0.923	1.09	0.943	1.07	1.09
LC-2-ad	1.1	1.06	0.93	1.04	1.16	0.881	0.964	1.01	0.927	0.969	0.921	1.09	0.979	0.943	0.995	0.467	0.482	0.416	0.411	0.452
NCI-H23	1.06	1.09	1	1.03	1.02	0.916	1.2	1.15	1.09	1.08	0.966	1.28	1.32	1.19	1.1	0.493	0.608	0.522	0.613	0.482
NCI-H2228	1.31	0.829	0.886	0.954	1.07	0.516	0.931	0.994	0.908	0.776	–	1.39	1.18	1.08	1.18	–	0.551	0.599	0.467	0.451
SW 1573	1.19	1.05	0.944	0.923	0.994	0.821	0.954	0.803	0.797	0.832	0.976	1.03	1.18	0.961	1.09	0.724	0.814	0.684	0.776	0.764
HCC-15	1.08	0.995	1.01	0.988	1.06	1.11	1.18	1.11	1.04	1.11	0.883	0.954	0.884	0.895	0.903	0.834	0.91	0.908	0.871	0.92
H3255	0.672	0.778	0.856	0.962	0.6	0.897	0.857	0.766	0.892	0.724	0.222	0.352	0.229	0.237	0.191	0.867	0.938	0.914	0.878	0.888
